{"source": "patent US5077035A", "about": "“Radioiodinated benzovesamicol analogs for cholinergic nerve mapping” (priority 1990, dated 1991)", "key": {"striatum": {"tested_on": "striatum", "experiment": "In vivo autoradiography in rat", "conditions": "90 min after i.v. injection", "procedure": "injection. Controls received an equal volume of vehicle. In vivo\nautoradiography in rat 90 min after i.v. injection of 5[^125 I]IBVM"}, "cholinergic neurons [1]": {"tested_on": "cholinergic neurons", "experiment": "Blocking of tracer accumulation by pretreatment with unlabeled (-)-vesamicol", "conditions": "i.p."}, "[2]": {"experiment": "Physiological activity of the enantiomers"}, "cholinergic neurons [3]": {"tested_on": "cholinergic neurons", "experiment": "Temporal pattern of distribution in mouse brain, 4 to 24 h (FIGS. 3 and 4)", "assay_type": "in vivo, female CD-1 mice"}, "cholinergic neurons [4]": {"tested_on": "cholinergic neurons", "experiment": "Tissue distribution of radiotracer in mouse brain and tissues 4 h after intravenous injection (Example 9, Table II)", "conditions": "4 h after i.v. injection"}, "in vivo": {"experiment": "in vivo", "conditions": "mouse, iv"}, "[5]": {"experiment": "Brain distribution of 5-[125I]iodobenzovesamicol in mice, control and blocked (Example 10, Table III)", "assay_type": "in vivo, CD-1 mice", "conditions": "mouse, iv, 10 uCi, normalized to a 20 g mouse", "procedure": "(§1) Radioactive compound 13 as prepared above in Example 1 was dissolved in ethanol/0.005M sodium acetate (1/9) buffer (pH 4.5) at 1 mCi/ml and 10 μCi of the solution was administered intravenously to lightly etherized CD-1 mice. Animals were sacrificed at various time points after injection. Samples of the brain and other tissues were excised, weighed, and counted. As shown below in Table III, the ratios at 4 hours are consistent with the regional distribution pattern of central cholinergic neurons. […] | ^a N = 5 per group. Mice (CD1) weighed 19-21 g. Concentrations are | normalized to a 20 g mouse. […] | prior to i.v. tracer injection; all amimals were killed 4 h after tracer | injection. Controls received an equal volume of vehicle. In vivo"}, "[6]": {"tested_on": "central cholinergic neurons", "experiment": "Brain distribution of 5-[125I]iodobenzovesamicol in mice, control and blocked (Example 10, Table III)", "assay_type": "in vivo, CD-1 mice", "procedure": "as §1"}, "[7]": {"tested_on": "vesicular sequestration of acetylcholine", "conditions": "cited from earlier work"}, "[8]": {"conditions": "± S.D., normalized to a 25 g mouse"}, "[9]": {"conditions": "Blocked: (±)-vesamicol 0.53 mg/kg, ip, 10 min prior, 4 h after i.v. tracer"}, "[10]": {"conditions": "Control, 4 h after i.v. injection"}, "[11]": {"conditions": "pretreatment with cold (±)-vesamicol 0.53 mg/kg, ip"}}, "data": [{"molecule": "O[C@@H]1Cc2cccc([125I])c2C[C@H]1N1CCC(c2ccccc2)CC1", "note": "[[^125 I]-(-)-IBVM]", "values": [{"measurement": "Accumulation in striatum by autoradiography (in words)", "setting": "striatum", "value": "selective accumulation of tracer in the striatum"}, {"measurement": "Lowering of 4 hour striatal and cortical accumulation", "setting": "cholinergic neurons [1]; pretreatment with unlabeled (-)-vesamicol hydrochloride 605 μg/kg, 10 min prior to tracer", "value": 65, "unit": "%"}, {"measurement": "Physiological activity versus the other enantiomer (in words)", "setting": "[2]", "value": "more physiologically active than the positive"}, {"measurement": "Neuronal specificity in cortex and striatum", "setting": "cholinergic neurons [3]; 4-24 h, 4 h activity of (+)-enantiomer as estimate of non-neuronal binding", "value": "> 95", "unit": "%"}, {"measurement": "Specific neuronal binding in cortex and striatum", "setting": "cholinergic neurons [3]; 4 to 24 h, cerebellar concentration as approximation of non-neuronal binding", "value": "> 95", "unit": "%"}, {"measurement": "Radioactivity in cerebral cortex and striatum over time (in words)", "setting": "cholinergic neurons [3]; 4 to 24 hours following injection", "value": "remains at a high and fairly constant level"}, {"measurement": "Initial striatal uptake of the two enantiomers (in words)", "setting": "cholinergic neurons [3]; mouse striatum", "value": "nearly identical initial striatal uptake"}, {"measurement": "Concentration ratio [L. atrium]/[L. ventricle]", "setting": "cholinergic neurons [4]", "value": 5.5}, {"measurement": "Concentration ratio [cortex]/[blood]", "setting": "cholinergic neurons [4]", "value": 6.2}, {"measurement": "Concentration ratio [cortex]/[cerebellum]", "setting": "cholinergic neurons [4]", "value": 11.1}, {"measurement": "Concentration ratio [striatum]/[cerebellum]", "setting": "cholinergic neurons [4]", "value": 27.2}, {"measurement": "% of dose injected, whole brain", "setting": "cholinergic neurons [4]; normalized to a 25 g mouse", "value": "1.03 ± .07 % OF DOSE INJECTED"}, {"measurement": "Concentration, cerebral cortex", "setting": "cholinergic neurons [4]; [8]", "value": "2.56 ± .21 % DOSE/G"}, {"measurement": "tissue uptake at 4 h", "setting": "in vivo; cerebellum", "value": "0.23 ± 0.04", "unit": "%ID/g"}, {"measurement": "tissue uptake at 4 h", "setting": "in vivo; striatum", "value": "6.26 ± 0.46", "unit": "%ID/g"}, {"measurement": "tissue uptake at 4 h", "setting": "[5]; blood, Blocked: (±)-vesamicol 0.53 mg/kg, ip, 10 min prior, 4 h after i.v. tracer, read-out: Concentration, blood", "value": "0.45 ± 0.1", "unit": "%ID/g"}, {"measurement": "tissue uptake at 4 h", "setting": "[5]; blood, Control, 4 h after i.v. injection, read-out: Concentration, blood", "value": "1.01 ± 0.7", "unit": "%ID/g"}, {"measurement": "tissue uptake at 4 h", "setting": "[5]; cerebellum, Blocked: (±)-vesamicol 0.53 mg/kg, ip, 10 min prior, 4 h after i.v. tracer, read-out: Concentration, cerebellum", "value": "0.24 ± 0.1", "unit": "%ID/g"}, {"measurement": "tissue uptake at 4 h", "setting": "[5]; cerebellum, Control, 4 h after i.v. injection, read-out: Concentration, cerebellum", "value": "0.26 ± 0.06", "unit": "%ID/g"}, {"measurement": "tissue uptake at 4 h", "setting": "[5]; cortex, Blocked: (±)-vesamicol 0.53 mg/kg, ip, 10 min prior, 4 h after i.v. tracer, read-out: Concentration, cortex", "value": "0.69 ± 0.13", "unit": "%ID/g"}, {"measurement": "tissue uptake at 4 h", "setting": "[5]; cortex, Control, 4 h after i.v. injection, read-out: Concentration, cortex", "value": "1.46 ± 0.25", "unit": "%ID/g"}, {"measurement": "tissue uptake at 4 h", "setting": "[5]; striatum, Blocked: (±)-vesamicol 0.53 mg/kg, ip, 10 min prior, 4 h after i.v. tracer, read-out: Concentration, striatum", "value": "1.97 ± 0.35", "unit": "%ID/g"}, {"measurement": "tissue uptake at 4 h", "setting": "[5]; striatum, Control, 4 h after i.v. injection, read-out: Concentration, striatum", "value": "4.12 ± 0.65", "unit": "%ID/g"}, {"measurement": "Tissue ratio cortex/cerebellum", "setting": "[6]; [9]", "value": 2.9}, {"measurement": "Tissue ratio striatum/cerebellum", "setting": "[6]; [9]", "value": 8.2}, {"measurement": "Tissue ratio cortex/cerebellum", "setting": "[6]; [10]", "value": 5.6}, {"measurement": "Tissue ratio striatum/cerebellum", "setting": "[6]; [10]", "value": 15.8}, {"measurement": "Change of cerebellum accumulation of radioactivity", "setting": "[6]; [11]", "value": -8, "unit": "%"}, {"measurement": "Change of striatal and cortical accumulation of radioactivity", "setting": "[6]; [11]", "value": -53, "unit": "%"}]}, {"molecule": "O[C@@H]1CCCC[C@H]1N1CCC(c2ccccc2)CC1", "note": "(relative stereo) [Vesamicol, trans-2-(4-phenylpiperidino)-cyclohexanol]", "values": [{"measurement": "Inhibition of vesicular sequestration of acetylcholine (in words)", "setting": "[7]", "value": "potent inhibitor of the vesicular sequestration of acetylcholine"}]}, {"molecule": "(-)-vesamicol [reference compound]", "values": [{"measurement": "Toxicity limitation of dose (in words)", "setting": "cholinergic neurons [1]; doses larger than 605 μg/kg", "value": "larger doses of (-)-vesamicol could not be injected due to toxicity limitations"}, {"measurement": "Potency relative to (+)-vesamicol", "setting": "[7]; enantioselectivity versus (+)-vesamicol", "value": 25, "unit": "times more potent"}]}, {"molecule": "O[C@H]1Cc2cccc([125I])c2C[C@@H]1N1CCC(c2ccccc2)CC1", "note": "[[^125 I]-(+)-IBVM]", "values": [{"measurement": "Initial striatal uptake of the two enantiomers (in words)", "setting": "cholinergic neurons [3]; mouse striatum", "value": "nearly identical initial striatal uptake"}, {"measurement": "Striatal washout (in words)", "setting": "cholinergic neurons [3]; mouse striatum", "value": "rapidly washes out of the striatum"}, {"measurement": "Striatal level within 4 hours (in words)", "setting": "cholinergic neurons [3]; mouse striatum, within 4 hours", "value": "nearly absent from this tissue"}, {"measurement": "Concentration ratio [L. atrium]/[L. ventricle]", "setting": "cholinergic neurons [4]", "value": 0.9}, {"measurement": "Concentration ratio [cortex]/[blood]", "setting": "cholinergic neurons [4]", "value": 0.3}, {"measurement": "Concentration ratio [cortex]/[cerebellum]", "setting": "cholinergic neurons [4]", "value": 2.0}, {"measurement": "Concentration ratio [striatum]/[cerebellum]", "setting": "cholinergic neurons [4]", "value": 4.3}, {"measurement": "% of dose injected, whole brain", "setting": "cholinergic neurons [4]; normalized to a 25 g mouse", "value": "0.06 ± .01 % OF DOSE INJECTED"}, {"measurement": "tissue uptake at 4 h", "setting": "in vivo; cerebellum", "value": "0.06 ± 0.01", "unit": "%ID/g"}, {"measurement": "tissue uptake at 4 h", "setting": "in vivo; cerebral cortex", "value": "0.12 ± 0.01", "unit": "%ID/g"}, {"measurement": "tissue uptake at 4 h", "setting": "in vivo; striatum", "value": "0.26 ± 0.04", "unit": "%ID/g"}]}, {"molecule": "O[C@@H]1Cc2cccc([125I])c2C[C@H]1N1CCC(c2ccccc2)CC1", "note": "(relative stereo) [[^125 I]-(±)-IBVM, (±)-trans-2-hydroxy-5-iodo-3-(4-phenylpiperidino)tetralin]", "values": [{"measurement": "Concentration ratio [L. atrium]/[L. ventricle]", "setting": "cholinergic neurons [4]", "value": 4.7}, {"measurement": "Concentration ratio [cortex]/[blood]", "setting": "cholinergic neurons [4]", "value": 2.3}, {"measurement": "Concentration ratio [cortex]/[cerebellum]", "setting": "cholinergic neurons [4]", "value": 5.9}, {"measurement": "Concentration ratio [striatum]/[cerebellum]", "setting": "cholinergic neurons [4]", "value": 16.5}, {"measurement": "% of dose injected, whole brain", "setting": "cholinergic neurons [4]; normalized to a 25 g mouse", "value": "0.56 ± .07 % OF DOSE INJECTED"}, {"measurement": "Concentration, cerebellum", "setting": "cholinergic neurons [4]; [8]", "value": "0.20 ± .04 % DOSE/G"}, {"measurement": "Concentration, cerebral cortex", "setting": "cholinergic neurons [4]; [8]", "value": "1.17 ± .20 % DOSE/G"}, {"measurement": "Concentration, striatum", "setting": "cholinergic neurons [4]; [8]", "value": "3.29 ± .52 % DOSE/G"}]}]}
